# Columns and labels:
# [1] = parenterally and via oral administration; cited from earlier work
# infections = conditions: cited from earlier work
# [2] = test system: broad spectrum of microorganisms including antibiotic-resistant strains of Streptococcus Pneumoniae; conditions: cited from earlier work
# [3] = physical stability / interconversion of crystalline forms in water; assay type: physicochemical
# Description: (§1) The crystal structures and ideal water content of seven of these forms were established through single crystal x-ray analyses. Each form gives rise to unique and characteristic single crystal and powder x-ray diffraction. The kinetic and thermodynamic relationships among the three major hydrates were investigated leading to the understanding of their stability order in water as a function of temperature and their interconversion relationship. […] The implications of these findings were very significant in the discovery and development of highly homogeneous gatifloxacin pentahydrate in accordance with the present invention. Further, these findings made it evident that very strict process controls were necessary in the production of crystalline gatifloxacin and dosage forms containing it and that it was necessary to obtain crystalline gatifloxacin pentahydrate in high homogeneity vs. the other crystalline forms in order to realize the advantageous properties thereof. By high homogeneity is meant that crystalline gatifloxacin pentahydrate must contain no detectable levels of the other crystalline forms thereof as determined by powder x-ray diffraction technique.
# [4] = cited from earlier work
# [5] = aqueous solubility of the crystalline hydrates; assay type: physicochemical; conditions: for aqueous solubility (rank among the three major hydrates): water, 25° C., sesquihydrate, pentahydrate, hexahydrate compared
# Description: as §1
# [6] = stability studies under stressed conditions of temperature and humidity; assay type: physicochemical
# Description: It has been found in accordance with the present invention that the advantageous stability and solubility properties of the pentahydrate of gatifloxacin can be applied to the formulation of pharmaceutical dosage forms. While the pentahydrate of gatifloxacin can be utilized to prepare tablets by wet granulation, it can also be formulated in accordance with the present invention into stable pharmaceutical solid dosage forms by conventional dry granulation. […] Such formulations will include conventional inert ingredients such as binders, excipients, disintegrants, and the like. Examples of such agents include various starch derivatives such as pregelatinized starch, hydroxypropyl cellulose microcrystalline cellulose, sodium starch glycolate, magnesium stearate, lactose, mannitol and the like.
compound,measurement,setting,value
"COc1c(N2CCNC(C)C2)c(F)cc2c(=O)c(C(=O)O)cn(C3CC3)c12 (stereo not drawn) [Gatifloxacin, 1-cyclopropyl-6-fluoro-1,4-dihydro-8-methoxy-7-(3-methyl-1piperizinyl)-4-oxo-3-quinolinecarboxylic acid]",efficacy,[1],excellent efficacy
same,overall tolerability,infections; in vivo,excellent overall tolerability
same,safety and efficacy in treatment of infections,infections; individuals with impaired liver function,safe and efficacious
same,effectiveness against microorganisms,[2],effective
COc1c(N2CCNC(C)C2)c(F)cc2c(=O)c(C(=O)O)cn(C3CC3)c12 (stereo not drawn) [hemihydrate],tendency to form higher hydrates,[3]; in the presence of water,definite tendency to form higher hydrates
COc1c(N2CCNC(C)C2)c(F)cc2c(=O)c(C(=O)O)cn(C3CC3)c12 (stereo not drawn) [sesquihydrate],disintegration and dissolution rates of tablets in comparison to the hemihydrate,[4]; tablets made from the crystalline form,superior disintegration and dissolution rates
same,stability in comparison to the hemihydrate,[4]; varying conditions of humidity,enhanced stability
same,aqueous solubility (rank among the three major hydrates),[5],highest
"COc1c(N2CCNC(C)C2)c(F)cc2c(=O)c(C(=O)O)cn(C3CC3)c12 (stereo not drawn) [gatifloxacin pentahydrate, 1cyclopropyl-6-fluoro-1,4-dihydro-8-methoxy-7-(3-methyl-1-piperazinyl)-4-oxo-3-quinolinecarboxylic acid]",form change or other degradation,[6],no evidence of form change or other degradation
same,physical stability of the crystalline form,"[3]; compared with the other crystalline forms, conversion over time",most physically stable form
same,solubility compared with the metastable sesquihydrate,[5]; aqueous dosage forms,less soluble
same,aqueous solubility (rank among the three major hydrates),[5]; listed as pentahydrate,lowest

# Reference: patent publication US6413969B1, “Gatifloxacin pentahydrate” (Bristol-Myers Squibb Company, priority 2000, dated 2002)
